Reference: patent US4634766A, “1,4-diaza-phenothiazines” (Merck Frosst Canada, Inc., priority 1984, dated 1987)
Converted amounts (≈) assume the structure as drawn.

Key:
[1] = system: LTB4 formation in rat polymorphonuclear leukocytes; experiment: Rat Polymorphonuclear Leukocyte (P.M.N.) Assay: inhibition of LTB4 formation; assay type: cell-based; conditions: A-23187 stimulated rat PMN, LTB4 bioassay, read-out: PMN I50
Method: Rats under ether anesthesia were injected (i.p.) with 8 ml of a suspension of sodium caseinate (6 grams in ca. 50 ml water). After 15-24 hours the rats were sacrificed (CO2) and the cells from the peritoneal cavity were recovered by lavage with 20 ml of buffer (Eagles MEM containing 30 mM HEPES adjusted to pH 7.4 with NaOH). The cells were pelleted (350×g,5 min.), resuspended in buffer with vigorous shaking, filtered through lens paper, recentrifuged and finally suspended in buffer at a concentration of […]. A 500 μl aliquot of PMN suspension and test compound were preincubated for 2 minutes at 37° C., followed by the addition of 10 μM A-23187. The suspension was stirred for an additional 4 minutes then bioassayed for LTB4 content by adding an aliquot to a second 500 μl portion of the PMN at 37° C. The LTB4 produced in the first incubation caused aggregation of the second PMN, which was measured as a change in light transmission. The size of the assay aliquot was chosen to give a submaximal transmission change (usually -70%) for the untreated control. The percentage inhibition of LTB4 formation was calculated from the ratio of transmission change in the sample to the transmission change in the compound-free control.

guinea pig trachea = experiment: Antigen Challenge in vitro Assay: contraction of sensitized tracheal chains by egg albumin; assay type: cell-based; conditions: Cavia porcellus; for inhibition at 3 µg/mL: 3 μg/ml
Method: Male guinea pigs weighing 300-350 g were sensitized by injecting (I.P.) 0.5 ml of a suspension containing 0.4 mg of egg albumin (Ovalbumin, Grade V, Sigma Chemical Co.) and 4.0 g aluminum hydroxide in 19.6 ml of saline. Two weeks were permitted for sensitization to occur.
Three sensitized guinea pigs were stunned and exsanguinated. The tracheas were removed, freed of adhering tissue and divided longitudinally by cutting through the cartilaginous tissue directly opposite the muscle insertion. Each opened trachea was then transected between every second cartilage. Four of the cut sections were tied together, end to end, in a series with No. 7 silk thread ensuring that the tracheal muscles were all in the same vertical plane. Thus, each chain consisted of tissue from three different animals.
The chain so formed was then suspended under 1 g of tension (by silk ties at each end) in a 20 ml organ bath containing 10 ml of modified^1 Krebs-Henseleit buffer solution gassed with 95% O2 and 5% CO2 at 37° C. Mepyramine (0.55 μg/ml) and indomethacin (2.67 μg/ml) were added to the buffer to avoid the contribution of histamine receptors and cyclooxygenase products to the contraction. To record responses one end of the tracheal chain was attached to a Gould-Statham UC-2 force displacement transducer which was connected to a Beckman Type R-dynograph.The preparations were allowed to equilibrate for one hour during which time the tissues were automatically washed (10 ml volume displacement) every 6 minutes.
After the equilibration period the tissues were primed with methacholine (3 μg/ml; 1.5×10^-5 M), washed and allowed to recover to baseline. The tissues were treated again with a second dose of methacholine, washed, allowed to return to baseline and washed for an additional hour.
Two chains were used as a control. These were incubated in a concentration of egg albumin sufficient to induce an average contraction of 50-80% of the methacholine response.
Each compound to be tested was added to two other baths (at a final concentration in each bath of 10 μg/ml) 15 minutes prior to challenging the fresh chains with egg albumin.
The response of the challenged tissue was expressed as a percentage of the methacholine maximum. The percentage inhibition for each compound was then calculated. Compounds which at 10 μg/ml (final conc.) inhibited the egg albumin response by 50% or more were retested at a lower concentration.

asthmatic rats = experiment: Asthmatic Rat Assay: duration of dyspnoea after egg albumin aerosol challenge; assay type: in vivo; conditions: p.o.
From the text: Rats were obtained from an inbred line of asthmatic rats. Both female and male rats from 200 to 300 g were used.
Egg albumin (EA), grade V, crystallized and lyophilized, was obtained from Sigma Chemical Co., St. Louis. Bordetella pertussis vaccine, containing 30×10^9 killed bacteria per ml was obtained from the Institut Armand-Frappier, Laval des Rapides, Quebec. Aluminum hydroxide was obtained from the Regis Chemical Company, Chicago.
The challenge and subsequent respiratory recordings were carried out in a clear plastic box with internal dimensions 10×6×4 inches. The top of the box was removable; in use, it was held firmly in place by four clamps and an airtight seal was maintained by a soft rubber gasket. […] A Fleisch No. 0000 pneumotachograph was inserted into one end of the box and coupled to a Grass volumetric pressure transducer (PT5-A) which was then connected to a Beckman Type R Dynograph through appropriate couplers. While aerosolizing the antigen, the outlets were open and the pneumotachograph was isolated from the chamber. The outlets were closed and the pneumotachograph and the chamber were connected during the recording or the respiratory patterns. For challenge, 2 ml of a 3% solution of antigen in saline was placed into each nebulizer and the aerosol was generated with air from a small Potter diaphragm pump operating at 10 psi and a flow of 8 liters/minute.
Rats were sensitized by injecting (s.c.) 1 ml of a suspension containing 1 mg EA and 200 mg aluminum hydroxide in saline. Simultaneously, they received an intraperitoneal (i.p.) injection of 0.5 ml of B. pertussis vaccine. They were used between days 14 and 18 postsensitization. In order to eliminate the serotonin component of the response, rats were pretreated intravenously 5 minutes prior to aerosol challenge with […] methylserzide. Rats were then exposed to an aerosol of 3% EA in saline for exactly 1 minute, then their respiratory profiles were recorded for a further 25-30 minutes. The duration of continuous dyspnoea was measured from the respiratory recordings.
Compounds were generally administered either intraperitoneally 1 hour prior to challenge or orally 11/2 hours prior to challenge. They were either dissolved in dimethylsulfoxide or suspended in 0.1% methocel and 0.5% Tween 80. The volume injected was 2 ml/kg (intraperitoneally) or 10 ml/kg (orally (p.o.)). Prior to oral treatment rats were starved overnight. Their activity was determined in terms of their ability to decrease the duration of symptoms of dyspnoea in comparison with a group of vehicle-treated controls. Usually, a compound was evaluated at a series of doses and an ED50 was determined. This was defined as the dose (mg/kg) which would inhibit the duration of symptoms by 50%.

[2] = system: PAF-induced hyperalgesia in the rat paw; experiment: PAF-Induced Hyperalgesia Assay; assay type: in vivo, rat (Sprague-Dawley); conditions: 10 mg/kg, i.p.

Which IC50 [1] does the source give for `CN1c2ccccc2Sc2nccnc21` here?
Its IC50 is 1 to 5 µg/mL (≈ 4.65 to 23.2 µM).

With `COc1ccc2c(c1)Sc1nccnc1N2` as the molecule, how does the IC50 [1] read?
The IC50 was 0.05 to 0.5 µg/mL (≈ 0.216 to 2.16 µM).

And the inhibition at 3 µg/mL (guinea pig trachea)?
The inhibition at 3 µg/mL was 42%.

For `CC(=O)N1c2ccccc2Sc2nccnc21`, which inhibition at 3 µg/mL (guinea pig trachea) is on record?
Its inhibition at 3 µg/mL is 14%.

Which inhibition at 3 µg/mL (guinea pig trachea) does the source give for `CCOC(=O)CN1c2ccccc2Sc2nccnc21` here?
The inhibition at 3 µg/mL was 22%.

With `COc1cc2c(cc1Cl)N(C)c1nccnc1S2` as the molecule, how does the IC50 [1] read?
Its IC50 is 5 µg/mL (≈ 17.9 µM).

For `COc1cc2c(cc1Cl)Nc1nccnc1S2`, which IC50 [1] is on record?
Its IC50 is 1 µg/mL (≈ 3.76 µM).

For `c1ccc2c(c1)Nc1nccnc1O2`, which IC50 [1] is on record?
The IC50 was 0.5 to 1 µg/mL (≈ 2.7 to 5.4 µM).

What about the inhibition at 3 µg/mL (guinea pig trachea) of the same molecule?
Its inhibition at 3 µg/mL is 35%.

`COc1ccc2c(c1)Sc1nccnc1N2C` was tested. Which “Asthmatic Rat % Inhibition” value (asthmatic rats; 3 mg/kg) did it give?
Its value is 43%.

`COc1ccc2c(c1)[S+]([O-])c1nccnc1N2C` (centres unmarked) was tested. Which “Asthmatic Rat % Inhibition” value (asthmatic rats; 3 mg/kg) did it give?
The value was 25%.

What does the source list for `c1ccc2c(c1)Nc1nccnc1S2` [drawing 17]?
IC50 [1]: 5 µg/mL (≈ 24.8 µM); inhibition at 10 µg/mL (guinea pig trachea; 10 μg/ml): 85%

`CN1c2cc(Cl)c(O)cc2Sc2nccnc21` [drawing 18] was tested. Which IC50 [1] did it give?
Its IC50 is 0.2 µg/mL (≈ 0.753 µM).

For `CN1c2ccc(O)cc2Sc2nccnc21` [drawing 21], which IC50 [1] is on record?
The IC50 was 1 to 5 µg/mL (≈ 4.32 to 21.6 µM).

What about the inhibition at 3 µg/mL (guinea pig trachea) of the same molecule?
Its inhibition at 3 µg/mL is 71%.

How did the “Asthmatic Rat % Inhibition” value (asthmatic rats; 5 mg/kg) turn out when `c1ccc2c(c1)Nc1nccnc1S2` [drawing 27] was run?
The value was 30%.

And the “PAF % Inhibition” value [2]?
Its value is 70%.

With `CN1c2cc(Cl)c(O)cc2Sc2nccnc21` [drawing 28] as the molecule, how does the “Asthmatic Rat % Inhibition” value (asthmatic rats; 5 mg/kg) read?
The value was 47%.

With `CN1c2ccc(O)cc2Sc2nccnc21` [drawing 30] as the molecule, how does the “Asthmatic Rat % Inhibition” value (asthmatic rats; 3 mg/kg) read?
Its value is 39%.
